Data taken from ChEMBL document CHEMBL1121776, “Folate antagonists. 18. Synthesis and antimalarial effects of N6-(arylmethyl)-N6-methyl-2,4,6-pteridinetriamines and related N6,N6-disubstituted 2,4,6-pteridinetriamines” (1981).
Converted amounts (≈) assume the structure as drawn.

Key:
Format in all cases: functional
Pseudomonas aeruginosa [1] = assay: In vitro antibacterial effect against P.a 28 by using gradient plate test
Escherichia coli [2] = assay: In vitro antibacterial effect against E. c. Vogel by using gradient plate test
Enterococcus faecalis [3] = assay: In vitro antibacterial effect against S. f MGH-2
Staphylococcus aureus [4] = assay: In vitro antibacterial effect against S. a. UC-76 by using gradient plate test
Shigella sonnei [5] = assay: In vitro antibacterial effect against S. s C-10 by using gradient plate test
Staphylococcus aureus [6] = assay: In vitro antibacterial effect against S. a. S18713 by using gradient plate test
Staphylococcus aureus [7] = assay: In vitro antibacterial effect against Staphylococcus aureus S18713 by using gradient plate test
Staphylococcus aureus [8] = assay: In vitro antibacterial effect against Staphylococcus aureus UC-76 by using gradient plate test
Mus musculus [9] = assay: Parenteral antimalarial effect against Plasmodium berghei in mice (Mus musculus) at a dose of 320 subcutaneous mg/kg; Number of mice (Mus musculus) surviving at 60 days post infection and cured 5/5
Mus musculus [10] = assay: Parenteral antimalarial effect against Plasmodium berghei in mice (Mus musculus) at a dose of 10sc mg/kg
Mus musculus [11] = assay: Parenteral antimalarial effect against Plasmodium berghei in mice (Mus musculus) at a dose of 640 mg/kg subcutaneously; Number of mice (Mus musculus) surviving at 60 days post infection and cured 10/10; conditions: route subcutaneous
Shigella sonnei [12] = assay: In vitro antibacterial effect against Shigella sonnei C-10 by using gradient plate test
Enterococcus faecalis [13] = assay: In vitro antibacterial effect against Streptococcus faecalis MGH-2
Mus musculus [14] = assay: Parenteral antimalarial effect against Plasmodium berghei in mice (Mus musculus) at a dose of 20 mg/kg subcutaneously; Number of mice (Mus musculus) surviving at 60 days post infection and cured 2/5; conditions: route subcutaneous
Pseudomonas aeruginosa [15] = assay: In vitro antibacterial effect against Pseudomonas aeruginosa 28 by using gradient plate test
Mus musculus [16] = assay: Parenteral antimalarial effect against Plasmodium berghei in mice (Mus musculus) at a dose of 160 mg/kg subcutaneously; Number of mice (Mus musculus) surviving at 60 days post infection and cured 10/10; conditions: route subcutaneous
[17] = test system: Mycobacterium tuberculosis; assay: In vitro antibacterial effect against Mycobacterium tuberculosis H37Rv by using gradient plate test
Escherichia coli [18] = assay: In vitro antibacterial effect against Escherichia coli Vogel by using gradient plate test
Mus musculus [19] = assay: Parenteral antimalarial effect against Plasmodium berghei in mice (Mus musculus) at a dose of 20sc mg/kg
Mus musculus [20] = assay: Parenteral antimalarial effect against Plasmodium berghei in mice (Mus musculus) at a dose of 160 mg/kg subcutaneously; Number of mice (Mus musculus) surviving at 60 days post infection and cured 5/5; conditions: route subcutaneous
Mus musculus [21] = assay: Parenteral antimalarial effect against Plasmodium berghei in mice (Mus musculus) at a dose of 20 mg/kg subcutaneously; Number of mice (Mus musculus) surviving at 60 days post infection and cured 4/10; conditions: route subcutaneous
Mus musculus [22] = assay: Parenteral antimalarial effect against Plasmodium berghei in mice (Mus musculus) at a dose of 80 subcutaneously mg/kg; Number of mice (Mus musculus) surviving at 60 days post infection and cured 7/10
Mus musculus [23] = assay: Parenteral antimalarial effect against Plasmodium berghei in mice (Mus musculus) at a dose of 40sc mg/kg; Number of mice (Mus musculus) surviving at 60 days post infection and cured 3/5
Mus musculus [24] = assay: Parenteral antimalarial effect against Plasmodium berghei in mice (Mus musculus) at a dose of 640 subcutaneously mg/kg
Mus musculus [25] = assay: Parenteral antimalarial effect against Plasmodium berghei in mice (Mus musculus) at a dose of 40 mg/kg subcutaneously; conditions: route subcutaneous
Mus musculus [26] = assay: Parenteral antimalarial effect against Plasmodium berghei in mice (Mus musculus) at a dose of 160 subcutaneously mg/kg
Mus musculus [27] = assay: Parenteral antimalarial effect against Plasmodium berghei in mice (Mus musculus) at a dose of 160 mg/kg subcutaneously; Number of mice (Mus musculus) surviving at 60 days post infection and cured 3/5; conditions: route subcutaneous
Mus musculus [28] = assay: Parenteral antimalarial effect against Plasmodium berghei in mice (Mus musculus) at a dose of 320 mg/kg subcutaneously; Number of mice (Mus musculus) surviving at 60 days post infection and cured 3/5; conditions: route subcutaneous
Mus musculus [29] = assay: Parenteral antimalarial effect against Plasmodium berghei in mice (Mus musculus) at a dose of 80 mg/kg subcutaneously; Number of mice (Mus musculus) surviving at 60 days post infection and cured 2/5; conditions: route subcutaneous
Mus musculus [30] = assay: Parenteral antimalarial effect against Plasmodium berghei in mice (Mus musculus) at a dose of 320 subcutaneous mg/kg
Mus musculus [31] = assay: Parenteral antimalarial effect against Plasmodium berghei in mice (Mus musculus) at a dose of 80 mg/kg subcutaneously; conditions: route subcutaneous
Mus musculus [32] = assay: Parenteral antimalarial effect against Plasmodium berghei in mice (Mus musculus) at a dose of 80 mg/kg subcutaneously; Number of mice (Mus musculus) surviving at 60 days post infection and cured 10/10; conditions: route subcutaneous
Mus musculus [33] = assay: Parenteral antimalarial effect against Plasmodium berghei in mice (Mus musculus) at a dose of 20 mg/kg subcutaneously; Number of mice (Mus musculus) surviving at 60 days post infection and cured 8/15; conditions: route subcutaneous
Mus musculus [34] = assay: Parenteral antimalarial effect against Plasmodium berghei in mice (Mus musculus) at a dose of 160 mg/kg subcutaneously; Number of mice (Mus musculus) surviving at 60 days post infection and cured 8/10; conditions: route subcutaneous
Mus musculus [35] = assay: Parenteral antimalarial effect against Plasmodium berghei in mice (Mus musculus) at a dose of 40sc mg/kg; Number of mice (Mus musculus) surviving at 60 days post infection and cured 6/10
Mus musculus [36] = assay: Parenteral antimalarial effect against Plasmodium berghei in mice (Mus musculus) at a dose of 320 subcutaneously mg/kg; Number of mice (Mus musculus) surviving at 60 days post infection and cured 1/5
Mus musculus [37] = assay: Parenteral antimalarial effect against Plasmodium berghei in mice (Mus musculus) at a dose of 640 subcutaneously mg/kg; Number of mice (Mus musculus) surviving at 60 days post infection and cured 4/10

Row | Compound | MIC (Staphylococcus aureus [7]) [mg/L] | MIC (Staphylococcus aureus [8]) [mg/L] | MST (Mus musculus [10]) [days] | MIC (Shigella sonnei [12]) [mg/L] | MIC (Enterococcus faecalis [13]) [mg/L] | MIC (Pseudomonas aeruginosa [15]) [mg/L] | MIC [17] [mg/L] | MIC (Escherichia coli [18]) [mg/L] | MST (Mus musculus [19]) [days] | MST (Mus musculus [25]) [days] | also measured
1 | CN(Cc1cc2ccccc2c2ccccc12)c1cnc2nc(N)nc(N)c2n1 | – | – | – | – | – | – | – | – | – | – | MIC (Pseudomonas aeruginosa [1]): > 25 mg/L; MIC (Escherichia coli [2]): > 25 mg/L; MIC (Enterococcus faecalis [3]): < 0.25 mg/L; MIC (Staphylococcus aureus [4]): < 0.25 mg/L; MIC (Shigella sonnei [5]): > 25 mg/L; MIC (Staphylococcus aureus [6]): < 0.25 mg/L
2 | CN(Cc1ccc2ccccc2c1)c1cnc2nc(N)nc(N)c2n1 | < 0.25 | < 0.25 | 5.9 | > 25 | < 0.25 | > 25 | > 25 | > 25 | – | – | MST (Mus musculus [9]): 5 days; MST (Mus musculus [11]): 10 days; MST (Mus musculus [14]): 2 days; MST (Mus musculus [16]): 10 days
3 | CN(Cc1cccc2ccccc12)c1cnc2nc(N)nc(N)c2n1 | < 0.25 | < 0.25 | 4 | > 25 | < 0.25 | > 25 | > 25 | > 25 | 5 | – | MST (Mus musculus [9]): 5 days; MST (Mus musculus [11]): 10 days; MST (Mus musculus [16]): 10 days
4 | CN(Cc1ccc(Cl)cc1)c1cnc2nc(N)nc(N)c2n1 | – | – | 4.3 | – | – | – | – | – | – | – | MST (Mus musculus [20]): 5 days; MST (Mus musculus [21]): 4 days; MST (Mus musculus [22]): 7 days; MST (Mus musculus [23]): 3 days
5 | Nc1nc(N)c2nc(N3CCC(c4ccccc4)CC3)cnc2n1 | > 0.25 | > 0.25 | – | > 25 | < 0.25 | > 25 | 10 (≈ 31.1 µM) | > 25 | – | 0.1 | MST (Mus musculus [24]): 0.1 days; MST (Mus musculus [26]): 0.1 days
6 | Nc1nc(N)c2nc(N3CCCC3c3ccc(Cl)cc3)cnc2n1 (stereo unspecified) | – | – | 7.9 | – | – | – | – | – | 10.1 | 12.1 | MST (Mus musculus [27]): 3 days; MST (Mus musculus [28]): 3 days; MST (Mus musculus [29]): 2 days
7 | COc1ccc2ccccc2c1CN(C)c1cnc2nc(N)nc(N)c2n1 | – | – | – | – | – | – | – | – | 0.2 | – | MST (Mus musculus [30]): 0.2 days; MST (Mus musculus [31]): 0.2 days
8 | CN(Cc1ccc(Cl)c(Cl)c1)c1ccc2nc(N)nc(N)c2c1 | – | – | 8.7 | – | – | – | – | – | – | – | MST (Mus musculus [32]): 10 days; MST (Mus musculus [33]): 8 days; MST (Mus musculus [16]): 10 days
9 | COc1cc(CN(C)c2cnc3nc(N)nc(N)c3n2)cc(OC)c1OC | < 0.25 | < 0.25 | – | > 25 | < 0.25 | > 25 | > 25 | > 25 | 5.5 | – | MST (Mus musculus [34]): 8 days; MST (Mus musculus [11]): 10 days; MST (Mus musculus [35]): 6 days
10 | CN(Cc1cccc(Br)c1)c1cnc2nc(N)nc(N)c2n1 | – | – | – | – | – | – | – | – | 6.9 | 10.2 | MST (Mus musculus [31]): 10.7 days; MST (Mus musculus [36]): 1 days; MST (Mus musculus [37]): 4 days; MST (Mus musculus [26]): 12.8 days
11 | CN(Cc1cccc(C(F)(F)F)c1)c1cnc2nc(N)nc(N)c2n1 | < 0.25 | < 0.25 | 8.8 | > 25 | < 0.25 | > 25 | 10 (≈ 28.6 µM) | > 25 | 12.2 | 15.4 | MST (Mus musculus [20]): 5 days
